Where “and” joins values, the source holds several entries; their conditions need not be identical. Identical values can stand only once.
Legend:
[1] = test system: PD patients with constipation; assay: Phase 2 trial Stage 1: prokinetic response to single escalating oral doses; format: in vivo, human; settings: Stage 1, single oral dose
Text: (§1) Tolerability limits included diarrhea or vomiting.

[2] = test system: PD patients with constipation; assay: Phase 2 trial Stage 2: bowel function under daily oral dosing (escalation, fixed dose, randomization, wash-out); format: in vivo, human; settings: for CSBM/week: randomized cohort
Protocol: (§2) In Stage 2, 34 patients were evaluated.
The primary efficacy outcome variable was whether or not a subject was a “success” or “failure”. This is an endpoint based on subject diary entries for the “fixed dose” period prior to the endpoint assessment defined as average complete stool frequency increase by 1 or more over baseline, or 3 or more complete spontaneous stools/week. The subject was deemed a “success” if s/he met one or more of the criteria listed above, otherwise the subject was deemed a “failure”. The primary analysis was based on all subjects with a baseline assessment and an assessment at the end of the “fixed-dose” period and was a comparison of the proportion of successes with 0.10 (the null hypothesis corresponding to no treatment effect).

[3] = test system: PD patients with constipation; assay: Phase 2 trial Stage 1: adverse events; format: in vivo, human; settings: Stage 1, dosed 10
Text: as §1

[4] = test system: PD patients with constipation; assay: Phase 2 trial Stage 2: adverse events; format: in vivo, human
Protocol: as §2

[5] = test system: PD patients with constipation; assay: Phase 2 trial, both Stages: adverse events in all dosed patients (n = 44); format: in vivo, human
Protocol: Adverse events were coded using the current version of MedDRA. Severity of AEs were assessed by investigators according to CTCAE (v4.03): Grade 1 is labeled as Mild, Grade 2 as Moderate, and Grade 3 and above as Severe. […] The number (percentage) of subjects who experienced an AE during escalation and fixed dosing periods were summarized by dose level and overall for each stage. The denominator for calculating the percentages were based on the number of subjects ever exposed to each dose and overall.

[6] = test system: PD patients with constipation; assay: Phase 2 trial Stage 2: CNS symptoms (UPDRS, MMSE, PDHQ, BDI-II); format: in vivo, human; settings: for PDHQ (Mean): baseline 1.3 (2.99); for BDI-II (Mean): baseline 10.9 (7.12)
Protocol: (9) Unified Parkinson's Disease Rating Scale (UPDRS), which consists of 42 items in four subscales (Part I=Non-Motor Aspects of Experiences of Daily Living (nM-EDL) (1.1 cognitive impairment, 1.2 hallucinations and psychosis, 1.3 depressed mood; Part II=Motor Aspects of Experiences of Daily Living (M-EDL), Part III=Motor Examination, and Part IV=Motor Complications;
Assessments were made at baseline and at the end of the fixed dose and washout periods. Circadian system status was evaluated by continuously monitoring wrist skin temperature (Thermochron iButton DS1921H; Maxim, Dallas) following published procedures (Sarabia et al. 2008).
An exploratory analysis was done with respect to the sleep data, the body temperature data, mood, fatigue, hallucinations, cognition and other motor and non-motor symptoms of PD. Continuous measurements within a subject were compared with a paired t-test and continuous measurements between subject groups were compared with a two-group t-test. Categorical data were compared with a chi-squared test or a Fisher's exact test if the expected cell counts are too small for a chi-squared test.
CNS symptoms were evaluated at baseline and at the end of the fixed dose period and the wash-out period (Table 11). Total UPDRS score was 64.4 at baseline, 60.6 at the end of the fixed dose period and 55.7 at the end of the wash-out period (p=0.002); similarly, the motor component of the UPDRS improved from 35.3 at baseline to 33.3 at the end of fixed dose to 30.2 at the end of wash-out (p=0.006). MMSE improved from 28.4 at baseline to 28.7 during treatment and to 29.3 during wash-out (p=0.0006). […] PDHQ improved from 1.3 at baseline to […] during treatment and 0.9 during wash-out (p=0.03). Hallucinations were reported by 5 patients at baseline and delusions in 1 patient. […] Unlike stool-related indices, the improvement in many CNS symptoms persisted during wash-out.

[7] = target: αS (Homo sapiens, UniProt P37840); settings: in vitro; cited from earlier work
[8] = test system: C. elegans model of PD; settings: cited from earlier work
[9] = test system: PD population with constipation; settings: short term placebo controlled trial in PD; loose stools/diarrhea in place of constipation; cited from earlier work
[10] = test system: mouse models of PD; settings: several mouse models of PD; cited from earlier work
[11] = following systemic administration, in mice; into the duodenum through the biliary tract; cited from earlier work
[12] = Stage 2, dosed 34, unrelated to ENT-01

Structure (SMILES): CC(C)[C@@H](CC[C@@H](C)[C@H]1CC[C@H]2[C@@H]3[C@H](O)C[C@H]4C[C@@H](NCCCNCCCCN)CC[C@]4(C)[C@H]3CC[C@]12C)OS(=O)(=O)O (single isomer, unassigned) [squalamine (ENT-01)]
- cumulative prokinetic response rate (patients with a CSBM within 24 hours of dosing) ([1]; 25 mg): 25%
- cumulative prokinetic response rate (patients with a CSBM within 24 hours of dosing) ([1]; 200 mg (maximum)): 80%
- CSBM, weekly average (mean, SD) ([2]; Stage 2, fixed dose, n = 34, baseline 1.2 (0.90), P 2.3 × 10^−8): 3.8 /week and 3.8 (2.40) /week
- Suppository use / rescue medication, weekly average (mean, SD) ([2]; Stage 2, fixed dose, n = 34, baseline 1.8 (1.92), P 1.33 × 10^−5): 0.3 /week and 0.3 (0.67) /week
- SBM, weekly average (mean, SD) ([2]; Stage 2, fixed dose, n = 34, baseline 2.6 (1.45), P 6.4 × 10^−6): 4.5 /week and 4.5 (2.21) /week
- Consistency (Mean, SD) ([2]; Stage 2, wash-out, Bristol stool scale, baseline 2.7 (1.20), P vs. baseline 0.85): 2.8 (1.39)
- CSBM (Mean, SD) ([2]; Stage 2, wash-out, baseline 1.2 (0.90), P wash-out vs. baseline 0.01): 1.8 (1.19) /week
- PAQ-SYM (Mean, SD) ([2]; Stage 2, wash-out, baseline 1.3 (0.45), P vs. baseline 0.11): 1.1 (0.60)
- PAQ-QOL (Mean, SD) ([2]; Stage 2, wash-out, baseline 1.4 (0.49), P vs. baseline 0.04): 1.2 (0.63)
- Rescue meds (Mean, SD) ([2]; Stage 2, wash-out, baseline 1.8 (1.92), P vs. baseline 0.13): 1.0 (1.40) /week
- SBM (Mean, SD) ([2]; Stage 2, wash-out, baseline 2.6 (1.45), P vs. baseline 0.16): 3.2 (1.80) /week
- Ease (Mean, SD) ([2]; Stage 2, wash-out, ease of evacuation scale, baseline 3.2 (0.73), P vs. baseline 0.78): 3.3 (0.81)
- improvement of SBM/week ([2]; fixed dose vs baseline (2.6 to 4.5)): 73%
- mean dose required for a prokinetic response ([2]; patients with baseline ≥1 CSBM/week, relation to baseline severity p=0.00055): 120 mg
- CSBM/week ([2]; Treatment arm (n = 6), fixed dose period, baseline 0.8): 3.2 CSBM/week
- CSBM/week ([2]; Treatment arm (n = 6), randomized period (4-6 days), baseline 0.8): 2.4 CSBM/week
- CSBM/week ([2]; Treatment arm (n = 6), washout, baseline 0.8): 0.9 CSBM/week
- CSBM/week ([2]; patients later given placebo (n = 9), fixed dose period on drug, baseline 1.6): 3.3 CSBM/week
- adverse event: Abdominal pain, Mild [3]: 2 (20) n, %
- adverse event: Abdominal pain, Moderate [3]: 3 (30) n, %
- adverse event: Diarrhea, Mild [3]: 1 (10) n, %
- adverse event: Diarrhea, Moderate [3]: 3 (30) n, %
- adverse event: Diarrhea, Severe [3]: 0 n, %
- adverse event: Difficulty falling asleep, Mild [3]: 0 n, %
- adverse event: Difficulty falling asleep, Moderate [3]: 0 n, %
- adverse event: Dizziness, Mild [3]: 0 n, %
- adverse event: Dizziness, Moderate [3]: 0 n, %
- adverse event: Eye infection, Mild [3]: 0 n, %
- adverse event: Eye infection, Moderate [3]: 0 n, %
- adverse event: Flatulence, Mild [3]: 2 (20) n, %
- adverse event: Flatulence, Moderate [3]: 0 n, %
- adverse event: Headache, Mild [3]: 1 (10) n, %
- adverse event: Headache, Moderate [3]: 0 n, %
- adverse event: Increased urinary frequency, Mild [3]: 0 n, %
- adverse event: Increased urinary frequency, Moderate [3]: 0 n, %
- adverse event: Nausea, Mild [3]: 4 (40) n, %
- adverse event: Nausea, Moderate [3]: 0 n, %
- adverse event: Skin lesions-rash, Mild [3]: 0 n, %
- adverse event: Skin lesions-rash, Moderate [3]: 0 n, %
- adverse event: Urinary retention, Mild [3]: 0 n, %
- adverse event: Urinary retention, Moderate [3]: 0 n, %
- adverse event: Urinary tract infection, Mild [3]: 0 n, %
- adverse event: Urinary tract infection, Moderate [3]: 0 n, %
- adverse event: Vomiting, Mild [3]: 1 (10) n, %
- adverse event: Vomiting, Moderate [3]: 0 n, %
- adverse event: Worsening acid reflux, Mild [3]: 0 n, %
- adverse event: Worsening acid reflux, Moderate [3]: 0 n, %
- adverse event: Worsening hemorrhoid, Mild [3]: 0 n, %
- adverse event: Worsening hemorrhoid, Moderate [3]: 0 n, %
- adverse event: Blood in urine, Mild ([3]; unrelated to ENT-01): 1 (10) n, %
- adverse event: Blood in urine, Moderate ([3]; unrelated to ENT-01): 0 n, %
- adverse event: Loss of appetite, Mild ([3]; unrelated to ENT-01): 1 (10) n, %
- adverse event: Loss of appetite, Moderate ([3]; unrelated to ENT-01): 0 n, %
- adverse event: Lower GI bleed, Severe ([3]; unrelated to ENT-01): 0 n, %
- patients with diarrhea ([4]; Stage 2, 15/34): 44%
- patients who withdrew during dosing because of diarrhea ([4]; Stage 2, 34 dosed): 2
- adverse event: Abdominal pain, Mild ([4]; Stage 2, dosed 34): 4 n
- adverse event: Abdominal pain, Moderate ([4]; Stage 2, dosed 34): 2 n
- adverse event: Diarrhea, Mild ([4]; Stage 2, dosed 34): 12 n
- adverse event: Diarrhea, Moderate ([4]; Stage 2, dosed 34): 2 n
- adverse event: Diarrhea, Severe ([4]; Stage 2, dosed 34): 1 n
- adverse event: Difficulty falling asleep, Mild ([4]; Stage 2, dosed 34): 1 n
- adverse event: Difficulty falling asleep, Moderate ([4]; Stage 2, dosed 34): 0 n
- adverse event: Dizziness, Mild ([4]; Stage 2, dosed 34): 7 n
- adverse event: Dizziness, Moderate ([4]; Stage 2, dosed 34): 1 n
- adverse event: Eye infection, Mild ([4]; Stage 2, dosed 34): 1 n
- adverse event: Eye infection, Moderate ([4]; Stage 2, dosed 34): 0 n
- adverse event: Flatulence, Mild ([4]; Stage 2, dosed 34): 1 n
- adverse event: Flatulence, Moderate ([4]; Stage 2, dosed 34): 0 n
- adverse event: Headache, Mild ([4]; Stage 2, dosed 34): 3 n
- adverse event: Headache, Moderate ([4]; Stage 2, dosed 34): 0 n
- adverse event: Increased urinary frequency, Mild ([4]; Stage 2, dosed 34): 2 n
- adverse event: Increased urinary frequency, Moderate ([4]; Stage 2, dosed 34): 0 n
- adverse event: Nausea, Mild ([4]; Stage 2, dosed 34): 18 n
- adverse event: Nausea, Moderate ([4]; Stage 2, dosed 34): 1 n
- adverse event: Skin lesions-rash, Mild ([4]; Stage 2, dosed 34): 3 n
- adverse event: Skin lesions-rash, Moderate ([4]; Stage 2, dosed 34): 0 n
- adverse event: Urinary retention, Mild ([4]; Stage 2, dosed 34): 1 n
- adverse event: Urinary retention, Moderate ([4]; Stage 2, dosed 34): 0 n
- adverse event: Urinary tract infection, Mild ([4]; Stage 2, dosed 34): 1 n
- adverse event: Urinary tract infection, Moderate ([4]; Stage 2, dosed 34): 2 n
- adverse event: Vomiting, Mild ([4]; Stage 2, dosed 34): 2 n
- adverse event: Vomiting, Moderate ([4]; Stage 2, dosed 34): 0 n
- adverse event: Worsening acid reflux, Mild ([4]; Stage 2, dosed 34): 4 n
- adverse event: Worsening acid reflux, Moderate ([4]; Stage 2, dosed 34): 0 n
- adverse event: Worsening hemorrhoid, Mild ([4]; Stage 2, dosed 34): 1 n
- adverse event: Worsening hemorrhoid, Moderate ([4]; Stage 2, dosed 34): 0 n
- adverse event: Lower GI bleed, Severe ([4]; Stage 2, dosed 34, colonic diverticulosis, polyp, patient on aspirin, Plavix and naproxen, unrelated to ENT-01): 1 n
- adverse event: Blood in urine, Mild [4, 12]: 0 n
- adverse event: Blood in urine, Moderate [4, 12]: 0 n
- adverse event: Loss of appetite, Mild [4, 12]: 0 n
- adverse event: Loss of appetite, Moderate [4, 12]: 0 n
- patients terminated prior to completion because of recurrent dizziness ([4]; Stage 2, two of 34 dosed): 5.8%
- patients with worsening of hemorrhoids ([5]; 1/44): 2.2%
- patients with worsening of acid reflux ([5]; 2/44): 4.5%
- patients with flatulence ([5]; 3/44): 6.8%
- patients with vomiting ([5]; 3/44): 6.8%
- patients with dizziness ([5]; 8/44): 18%
- patients with abdominal pain ([5]; 11/44): 32%
- PDHQ (Mean) ([6]; Stage 2, fixed dose, n = 34, P 0.45): 1.8
- BDI-II (Mean) ([6]; Stage 2, fixed dose, n = 34, P 0.14): 9.9
- PDHQ (Mean) ([6]; Stage 2, wash-out, n = 34, P 0.03): 0.9
- BDI-II (Mean) ([6]; Stage 2, wash-out, n = 34, P 0.10): 8.7
- UPDRS Part 1 (NMS) (Mean) ([6]; Stage 2, wash-out, n = 34, baseline 11.6 (6.51), P 0.06): 9.5
- patients in whom hallucinations and delusions improved or disappeared ([6]; during treatment, hallucinations in 5 patients and delusions in 1 patient at baseline): 5 of 6
- effect on formation of aggregates of αS [7]: inhibit the formation of aggregates of αS
- effect on formation of aggregates of αS ([8]; C. elegans model of PD in vivo): inhibit the formation of aggregates of αS

Structure (SMILES): CCCCC(F)(F)[C@@]1(O)CC[C@H]2[C@@H](CC(=O)[C@@H]2CCCCCCC(=O)O)O1 [Lubiprostone]
- share of treated patients in whom effective [9]: about 50%

Structure (SMILES): CC(C)[C@@H](CC[C@@H](C)[C@H]1CC[C@H]2[C@@H]3[C@H](O)C[C@H]4C[C@@H](NCCCNCCCCN)CC[C@]4(C)[C@H]3CC[C@]12C)OS(=O)(=O)O [squalamine]
- effect on muscle paralysis ([8]; C. elegans model): complete reversal of muscle paralysis
- effect on gastrointestinal dysmotility [10]: reverse gastrointestinal dysmotility
- clearance and excretion [11]: cleared by the liver and excreted as the intact molecule

Reference: patent US20200038414A1, “METHODS OF TREATING CONSTIPATION USING AMINOSTEROL COMPOSITIONS” (Enterin, Inc., priority 2018, published 2020)
